# Reference: patent publication US20240033358A1, “COMBINATION THERAPIES WITH CHIMERIC ANTIGEN RECEPTOR (CAR)-EXPRESSING CELLS” (Novartis AG, priority 2020, published 2024)
# Tests used:
# [1] = system: SuDHL6 cells implanted subcutaneously; test: In vivo double-hit lymphoma model: tumor volume after CART19 cells and/or BCL2 inhibitor; set-up: species or system NOD scid gamma (NSG) mice; settings: treatment from day 15 post-implant; venetoclax 100 mg/kg daily; 1e6 CART19 cells; versus PBS vehicle, UTD or CART19 alone
# Description: NOD scid gamma (NSG) mice were implanted subcutaneously with a dose of 5e6 SuDHL6 cells/mouse. At day 15 post-implant, mice were randomized into treatment groups, which included: PBS vehicle negative control (FIG. 10A); PBS vehicle and 100 mg/kg of the BCL2 inhibitor, venetoclax (FIG. 10A); 1.45e6 untransduced T cells containing no CAR (UTD) (FIG. 10B); 1.45e6 untransduced T cells containing no CAR (UTD) and 100 mg/kg of the BCL2 inhibitor, venetoclax (FIG. 10B); 1e6 CART19 cells (which were at 68% positivity, total cells injected were 1.45e6) (FIG. 10C); and 1e6 CART19 cells and 100 mg/kg of the BCL2 inhibitor, venetoclax (FIG. 10C). The BCL2 inhibitor was administered daily until sacrifice. Tumor growth was monitored in these mice every three days. Tumor volume was quantified by caliper measurement at each timepoint sampled (FIGS. 10A-C).
# [2] = system: adult patients with r/r DLBCL; test: JULIET phase 2 trial of tisagenlecleucel: efficacy outcomes (BOR, M3 response, DOR, PFS, OS), safety and B-cell recovery, overall and by subgroup (MYC, DH/TH, TME, pre-infusion LDH); assay type: in vivo, human; settings: for probability of PFS: MYC(−) patients with normal pre-infusion LDH (n=16); for Survival probability: all infused patients
# Source text: Methods: JULIET (NCT02445248) was a global, phase 2 trial of autologous anti-CD19 CAR-T cell therapy in adult patients with r/r DLBCL (relapsed or refractory to ≥2 prior lines of therapy). Median follow-up was 40.3 months. The relationship between MYC overexpression, tumor microenvironment (TME) characteristics (including CD3+ T-cell infiltration, myeloid-derived suppressor cells [MDSCs], and LAG3 expression by fluorescent immunohistochemistry [IHC]), activated B-cell/germinal center B-cell [ABC/GCB] subtype, double/triple-hit (DH/TH) status, and gene mutations including TP53 with efficacy outcomes (best overall response [BOR], response at Month 3 [M3], progression-free and overall survival [PFS/OS]) were assessed. Results: 115 patients received autologous anti-CD19 CAR-T cell infusion. Among patients who were in CR at 6 months, 86% were estimated to maintain the response at 36 months. […] Median OS among all 115 infused patients was 11.1 months (95% CI, 6.6-23.9). […] Median OS of patients with CR (n=37) or PR (n=7) at M3 was not reached; 80% of patients with complete response (CR) had OS benefit≥20 months. […] Of the 23 patients with ongoing CR and B-cell count available, 11 had CD19+ B cells recovered back to normal (80 cells/μL) after 1 year, with similar patterns observed for CD20+ and CD22+ B cells (FIG. 21). The 24 month and 42 month PFS was 33% and 31% respectively (FIG. 16).
# Of the 111 patients whose baseline tumor biopsies were tested for MYC expression by immunohistochemistry (IHC), 73 patients were positive for MYC expression (MYC(+) defined as >40% of cells expressing MYC, as measured by IHC) and 38 patients were negative for MYC expression (MYC(−) defined as <40% of cells expressing MYC, as measured by IHC). BOR rates for MYC(+) and MYC(−) patients were 44% (95% CI, 32-56) and 63% (95% CI, 46-78), respectively; M3 response rates were 30% (95% CI, 20-42) and 50% (95% CI, 33-67), respectively (Table 6, and FIG. 14). By month 6, 18/38 (47%) MYC(−) patients were CR/PR compared to 18/73 (25%) of MYC(+) patients. DOR was in a plateau phase at 79% starting in MYC(−) patients (n=24) at 6 months. […] Thus, MYC(+) patients tended to have shorter PFS and OS compared with MYC(−) patients and a high-baseline of MYC expression in patients prior to treatment was associated with worse PFS and OS (FIGS. 4A-4C).
# Of the 73 MYC(+) patients, 70 of them were also tested for rearrangements in MYC, BCL2, and BCL6 by FISH in order to identify double hit (DH) (MYC/BCL2 or MYC/BCL6) or triple hit (TH) (MYC/BCL2/BCL6) lymphomas. Of the 70 MYC(+) patients, 20 had DH/TH lymphoma and a BOR rate of 40% (95% CI, 19-64). BOR rate for patients that were MYC(+) but non-DH/TH lymphoma was 48% (95% CI, 34-63).
# In the TME analysis of baseline biopsy, a low frequency of tumor infiltrating CD3+ T cells (cutoff of ≤3%; n=16) was associated with shorter median DOR, PFS (2.2 months [95% CI, 0.92-2.8] and 4.2 months [95% Cl, 2.6-21], respectively) and OS (7 months [95% CI, 1.8-12] and 21 months [95% CI, 6.7-NE], respectively) compared with patients with ≥3% CD3+ T cells (n=64) (FIGS. 13A-13C). At month 6, only 2/16 (13%) of patients with <3% tumor-infiltrating CD3+ T cells in baseline tumors were responders compared to 23/36 (64%) responders with >3% tumor infiltrating CD3+ T cells. Patients with low or no (≤3%) tumor-infiltrating CD3+ T cells (n=16) in baseline tumor biopsies were enriched with non-responders (FIG. 22).
# Patients with the highest frequency of LAG3+CD3+ cells out of the tumor infiltrating CD3+ T cell population (cutoff of >20%; n=12) at baseline were mostly non-responders at Month 3 (FIG. 23) and all 12 patients with >20% LAG3+CD3+ cells (out of the tumor infiltrating CD3+ T cells) were non-responders at Month 6.
# The probability of PFS in MYC(−) patients with normal LDH (n=16) was 81% at 6 months and stabilized at 75% starting at 12 months.
# [3] = LAG3+CD3+ out of CD3+ T cells ≥20% at baseline (n=12)
# [4] = MYC(+) DH/TH patients (n = 20), r/r DLBCL, JULIET
# [5] = MYC(+) Non-DH/TH patients (n = 50), r/r DLBCL, JULIET
# [6] = MYC(−) patients (n = 38), r/r DLBCL, JULIET
# [7] = baseline tumor infiltrating CD3+ T cells ≤3% (n=16)
# [8] = of patients with a CR at 6 months
# [9] = patients with <20% LAG3+CD3+ T cells (n=68)
# [10] = patients with ≥3% CD3+ T cells (n=64)
substance,measurement,setting,value
"4-(4-{[2-(4-chlorophenyl)-4,4-dimethylcyclohex-1-en-1-yl]methyl}piperazin-1-yl)-N-(3-nitro-4-{[(oxan-4-yl)methyl]amino}benzenesulfonyl)-2-{1H-pyrrolo[2,3162yridinedin-5-yloxy}benzamide [venetoclax]",tumor growth (tumor volume by caliper),[1],slowed tumor growth
Tisagenlecleucel,PFS,[2]; 24 month,33%
same,PFS,[2]; 42 month,31%
same,median duration of response (DOR),"[2]; 61 patients with a response, 95% CI, 10-NE",not reached
same,median OS,[2]; [3],4.3 months
same,median PFS,[2]; [3],2.1 months
same,"Best Overall Response (BOR), % (95% CI)",[2]; [4],40 (19-64) %
same,"Response at Month 3 (M3), % (95% CI)",[2]; [4],20 (6-44) %
same,"Best Overall Response (BOR), % (95% CI)",[2]; [5],48 (34-63) %
same,"Response at Month 3 (M3), % (95% CI)",[2]; [5],36 (23-51) %
same,median DOR,[2]; MYC(+) patients,19 months
same,median OS,[2]; MYC(+) patients,7.8 months
same,median PFS,[2]; MYC(+) patients,2.5 months
same,"Best Overall Response (BOR), % (95% CI)",[2]; MYC(+) patients (n = 73),44 (32-56) %
same,"Response at Month 3 (M3), % (95% CI)",[2]; MYC(+) patients (n = 73),30 (20-42) %
same,BOR rate,[2]; MYC(+) patients with DH/TH lymphoma (n=20),40%
same,patients CR/PR by month 6,"[2]; MYC(+) patients, 18/73",25%
same,median DOR,[2]; MYC(−) patients,not reached
same,median OS,[2]; MYC(−) patients,21 months
same,median PFS,[2]; MYC(−) patients,6.2 months
same,"Best Overall Response (BOR), % (95% CI)",[2]; MYC(−) patients (n = 38),63 (46-78) %
same,"Response at Month 3 (M3), % (95% CI)",[2]; MYC(−) patients (n = 38),50 (33-67) %
same,"Best Overall Response (BOR), % (95% CI)",[2]; [6],63 (46-78) %
same,"Response at Month 3 (M3), % (95% CI)",[2]; [6],50 (33-67) %
same,DOR plateau phase,"[2]; MYC(−) patients (n=24), starting at 6 months",79%
same,probability of PFS,[2]; at 6 months,81%
same,probability of PFS,[2]; stabilized starting at 12 months,75%
same,patients CR/PR by month 6,"[2]; MYC(−) patients, 18/38",47%
same,median OS,[2]; all 115 infused patients,11.1 months
same,patients estimated to maintain the response at 36 months,[2]; among patients who were in CR at 6 months,86%
same,relapse-free probability,"[2]; among the 61 patients with a response, at 24 and 30 months",60.4%
same,"responses across B-cell lymphoma subsets (MYC positive, MYC negative, DH/TH)",[2]; at 1 month post-treatment,comparable
same,Survival probability,[2]; at 12 months,48.2%
same,Survival probability,[2]; at 24 months,40.4%
same,Survival probability,[2]; at 36 months,36.2%
same,median OS,[2]; [7],7 months
same,median PFS,[2]; [7],2.2 months
same,safety signals,[2]; median follow-up 40.3 months,No new safety signals
same,patients with a relapse after 12 months,[2]; [8],1
same,patients with relapses after 6 months,[2]; [8],3
same,BOR rate,[2]; patients MYC(+) but non-DH/TH lymphoma,48%
same,patients maintaining longer than a 6 month response,[2]; patients identified as MYC positive by IHC,less than 75%
same,responders at month 6,"[2]; patients with <3% tumor-infiltrating CD3+ T cells in baseline tumors, 2/16",13%
same,median OS,[2]; [9],21 months
same,median PFS,[2]; [9],4.2 months
same,responders at month 6,"[2]; patients with >3% tumor infiltrating CD3+ T cells, 23/36",64%
same,patients with complete response (CR) with OS benefit ≥20 months,[2]; patients with CR,80%
same,median OS,[2]; patients with CR (n=37) or PR (n=7) at M3,not reached
same,PFS and OS compared with other patients,[2]; patients with DH/TH lymphoma,shorter progression free survival (PFS) and overall survival (OS)
same,response rate at M3,[2]; patients with DH/TH lymphoma,20%
same,relapse frequency,"[2]; patients with DH/TH lymphomas and high MYC expression, at 3 months and 6 months",appeared to relapse more frequently
same,response rate at M3,[2]; patients with MYC(+) but non-DH/TH lymphoma,36%
same,median OS,[2]; [10],21 months
same,median PFS,[2]; [10],4.2 months
same,patients who were non-responders at Month 6,[2]; the 12 patients with >20% LAG3+CD3+ cells out of tumor infiltrating CD3+ T cells,12
